Legend:
rice calli = experiment: Kill curves: tissue survival of rice calli on herbicide media; assay type: cell-based, Oryza sativa; details: determined by kill curves and observations of continued culture
Description: Once tissue culture conditions were determined, further establishment of selection conditions were established through the analysis of tissue survival in kill curves with cycloxydim, tepraloxydim, sethoxydim (FIG. 1) or haloxyfop (not shown). Careful consideration of accumulation of the herbicide in the tissue, as well as its persistence and stability in the cells and the culture media was performed. Through these experiments, a sub-lethal dose has been established for the initial selection of mutated material.
After the establishment of the starting dose of sethoxydim, cycloxydim, tepraloxydim, and haloxyfop in selection media, the tissues were selected in a step-wise fashion by increasing the concentration of the ACCase inhibitor with each transfer until cells are recovered that grew vigorously in the presence of toxic doses (see FIG. 2). The resulting calli were further subcultured every 3-4 weeks to R001M with selective agent. Over 26,000 calli were subjected to selection for 4-5 subcultures until the selective pressure was above toxic levels as determined by kill curves and observations of continued culture. Toxic levels were determined to be 50 μM sethoxydim, 20 μM cycloxydim, 2.5 μM tepraloxydim (FIG. 1) and 10 μM haloxyfop (not shown).

rice plants = experiment: Greenhouse spray test of regenerants, rated for herbicide injury; assay type: in vivo, Oryza sativa; details: 400-1600 g ai/ha, 0.1% methylated seed oil, 1 and 2 weeks after treatment
Description: Selected mutants and escapes were transferred to small pots. Wild-type cultivars and 3 biovars of red rice were germinated from seed to serve as controls.
After ca. 3 weeks post-transplant, MO regenerants were sprayed using a track sprayer with 400-1600 g ai/ha cycloxydim (BAS 517H) supplemented with 0.1% methylated seed oil. After the plants had adapted to greenhouse conditions, a subset were sprayed with 800 g ai/ha cycloxydim. Once sprayed, plants were kept on drought conditions for 24 hours before being watered and fertilized again. Sprayed plants were photographed and rated for herbicide injury at 1 (FIG. 3) and 2 weeks after treatment (FIG. 4). […] FIGS. 5-15 provide nucleic acid and/or amino acid sequences of acetyl-Coenzyme A carboxylase enzymes from various plants. FIG. 17 provides a graph showing results for mutant rice versus various ACCase inhibitors.

[1] = test system: ACCase-inhibitor tolerant rice plants; experiment: Field treatment of ACCase-inhibitor tolerant rice plants; assay type: in vivo; details: 600 g/ha treatment, data not shown

| Compound | Toxic levels (rice calli) [µM] | herbicide injury (rice plants; control plants and tissue culture escapes) | herbicide injury (rice plants; plants containing the I1,781 (Am)L heterozygous mutation) | herbicide tolerance phenotypes in the field [1] |
| --- | --- | --- | --- | --- |
| CCCC(=NOCC)C1=C(O)CC(C2CCCSC2)CC1=O (stereo not shown) [cycloxydim] | 20 | heavily damaged | No injury | exhibited |
| CC(Oc1ccc(Oc2ncc(C(F)(F)F)cc2Cl)cc1)C(=O)O (stereo not shown) [haloxyfop] | 10 | – | – | – |
| CCC/C(=N\OCC)C1=C(O)CC(CC(C)SCC)CC1=O (stereo not shown) [sethoxydim] | 50 | – | – | – |
| CC/C(=N\OC/C=C/Cl)C1=C(O)CC(C2CCOCC2)CC1=O (stereo not shown) [tepraloxydim] | 2.5 | – | – | – |

Reference: patent US20120284812A1, “Herbicide-Tolerant Plants” (BASF AGROCHEMICAL PRODUCTS, B.V., priority 2009, published 2012)
